Experimental data published in PubChem BioAssay (NCI).
Values joined by “and” are separate entries in the source; they are usually repeats but may differ in a detail not shown here. Identical values can stand only once.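 Test compounds were applied to cells in 96-well plates for 48 hours at 5 doses. The concentration for 50% growth inhibition is given as GI50. Definition used: TGI = concentration required for complete inhibition of growth.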

Tests used:
Assay in all cases: NCI anticancer screen, dose series, 48 h
[1] = tested on: RXF 393 renal
[2] = tested on: SW-620 colon
[3] = tested on: HOP-62 NSCLC
[4] = tested on: SF-268 CNS
[5] = tested on: U251 CNS
[6] = tested on: NCI-H522 lung
[7] = tested on: HOP-92 NSCLC
[8] = tested on: MALME-3M melanoma
[9] = tested on: K-562 leukemia
[10] = tested on: UACC-62 melanoma

O=c1[nH]ncc2[nH]c3c(c12)CCc1ccccc1-3 gave a TGI [1] of 42 µM, a TGI [2] of over 100 µM and a TGI [3] of over 100 µM. For the same compound, the TGI [4] was over 100 µM, the TGI [5] was over 100 µM and the TGI [6] was 57 µM. For the same compound, the TGI [7] was 81.8 µM, the TGI [8] was over 100 µM and the TGI [9] was over 100 µM.

Compound C[n+]1c2ccccc2n2c3ccccc3c(NCCCn3ccnc3)c(C#N)c21 has a TGI [10] of 17.6 µM, a TGI [1] of 3.48 µM and a TGI [3] of over 27 µM. For the same compound, the TGI [4] was 6.98 µM, the TGI [5] was over 33 µM and the TGI [6] was 2.18 µM. It also gave a TGI [7] of over 20.2 µM, a TGI [8] of 4.5 µM and a TGI [9] of over 26 µM.

CC1(C)CCC[C@@]2(C)C1CC[C@@]1(CO)O[C@H](C3=CC(=O)OC3O)C[C@H]12 (stereo partly drawn) showed a TGI [10] of 15.3 µM, a TGI [1] of 23.7 µM and a TGI [2] of 22.3 µM. The TGI [3] was 19.3 µM, the TGI [4] was over 55.6 µM and the TGI [5] was 28.5 µM. For the same compound, the TGI [6] was 17.4 µM, the TGI [7] was 38.2 µM and the TGI [8] was 24.2 µM. It also gave a TGI [9] of 63.9 µM.

For O=C(Nc1ccc(-n2cc(-c3ccncc3)c(-c3ccc(O)c(Cl)c3)n2)cc1)Nc1cc(C(F)(F)F)cc(C(F)(F)F)c1, the GI50 [10] was 3.02 µM, the TGI [10] was 10.6 µM and the GI50 [1] was 2.54 µM. It also gave a TGI [1] of 6.9 µM, a GI50 [2] of 5.93 µM and a TGI [2] of 22 µM. For the same compound, the GI50 [3] was 5.02 µM, the TGI [3] was 17.3 µM and the GI50 [4] was 4.37 µM. The TGI [4] was 16 µM, the GI50 [5] was 2.98 µM and the TGI [5] was 12.4 µM. It also gave a GI50 [6] of 3.79 µM, a TGI [6] of 15 µM and a GI50 [7] of 1.64 µM. It also gave a TGI [7] of 5.74 µM, a GI50 [8] of 2.59 µM and a TGI [8] of 13.9 µM. The GI50 [9] was 4.07 µM and the TGI [9] was 17.9 µM.

CCNC(=S)N/N=C(/C)c1cccc(/C(C)=N\NC(=S)NCC)n1 gave a TGI [10] of 27.2 µM, a TGI [1] of 33.5 µM and a TGI [2] of over 100 µM. For the same compound, the TGI [3] was over 100 µM, the TGI [4] was over 100 µM and the TGI [5] was 58 µM. The TGI [6] was 24.5 µM, the TGI [7] was 24.6 µM and the TGI [8] was over 44.6 µM. For the same compound, the TGI [9] was 26.3 µM.

Work on Cc1n[nH]c(=O)n1-n1cccc1 yielded a TGI [10] of over 100 µM, a TGI [1] of over 100 µM and a TGI [2] of over 100 µM. The TGI [3] was over 100 µM, the TGI [4] was over 100 µM and the TGI [5] was over 100 µM. It also gave a TGI [6] of over 100 µM, a TGI [7] of over 100 µM and a TGI [8] of over 100 µM. For the same compound, the TGI [9] was over 100 µM.

Clc1[nH]nc2ccccc12 gave a TGI [10] of over 100 µM, a TGI [1] of over 100 µM and a TGI [2] of over 100 µM. It also gave a TGI [3] of over 100 µM, a TGI [4] of over 100 µM and a TGI [5] of over 100 µM. The TGI [6] was over 100 µM, the TGI [7] was over 100 µM and the TGI [8] was over 100 µM. For the same compound, the TGI [9] was over 100 µM.

For Cc1nnc(SCc2nc(C#N)c(C#N)nc2CSc2nnc(C)s2)s1, the TGI [10] was 30.7 µM, the TGI [1] was 18 µM and the TGI [2] was 15.6 µM. It also gave a TGI [3] of 37.8 µM, a TGI [4] of 35.4 µM and a TGI [5] of 37.5 µM. The TGI [6] was 9.22 µM, the TGI [7] was 26.8 µM and the TGI [8] was 13 µM. The TGI [9] was over 52.3 µM.

COc1ccccc1N=Nc1c(O)ccc2ccccc12 was tested, and the GI50 [10] was 30.4 µM and 61.4 µM, the TGI [10] was over 100 µM and the GI50 [1] was 12.3 µM and 28.7 µM. The TGI [1] was 35.3 µM and 59.7 µM, the TGI [2] was over 100 µM and the TGI [3] was 30.9 µM and 34.6 µM. The TGI [4] was over 100 µM, the TGI [5] was > 62.4 µM and 40.4 µM and the GI50 [6] was > 100 µM and 41.8 µM. For the same compound, the TGI [6] was over 100 µM, the TGI [7] was 56.3 µM and 42.5 µM and the TGI [8] was 16.2 µM and > 100 µM. The TGI [9] was over 100 µM.

Work on Cc1ccc(C(=O)Nc2ccc(CP(=O)(O)O)cc2CP(=O)(O)O)cc1N yielded a TGI [10] of over 100 µM, a TGI [1] of over 100 µM and a TGI [2] of over 100 µM. For the same compound, the TGI [3] was over 100 µM, the TGI [4] was over 100 µM and the TGI [5] was over 100 µM. The TGI [6] was over 100 µM, the TGI [7] was over 100 µM and the TGI [8] was over 100 µM. The TGI [9] was over 100 µM.

For CC(C)C(NCc1c2ccccc2[n+](C)c2ccccc12)C(=O)O (stereo not drawn), the TGI [10] was 18.6 µM, the TGI [1] was 12.5 µM and the TGI [2] was 18.8 µM. For the same compound, the TGI [3] was 19.7 µM, the TGI [4] was 10.9 µM and the TGI [5] was 18 µM. The TGI [6] was 3.69 µM, the TGI [7] was 12.5 µM and the TGI [8] was 19.1 µM. For the same compound, the TGI [9] was 18.5 µM.

With COc1cc2c(cc1O)C(Cc1ccc(OCc3ccccc3)c(OCc3ccccc3)c1)N(C(=O)NCCc1ccccc1)CC2 (stereo not drawn) the TGI [10] was over 100 µM, the TGI [1] was over 100 µM and the TGI [2] was over 100 µM. For the same compound, the TGI [3] was over 100 µM, the TGI [4] was over 100 µM and the TGI [5] was over 100 µM. For the same compound, the TGI [6] was 72.9 µM, the TGI [7] was over 100 µM and the TGI [8] was over 100 µM. The TGI [9] was over 100 µM.

For O=C1Nc2noc(=O)nc2NO1, the TGI [10] was over 200 µM, the TGI [1] was over 200 µM and the TGI [2] was over 200 µM. It also gave a TGI [3] of over 200 µM, a TGI [4] of over 200 µM and a TGI [5] of over 200 µM. For the same compound, the TGI [6] was over 200 µM, the TGI [7] was over 200 µM and the TGI [8] was over 200 µM. The TGI [9] was over 200 µM.

For CN(Cc1cnc2nc(N)nc(N)c2n1)c1ccc(C(=O)NC(CCC(=O)O)C(=O)O)c2ccccc12 (stereo not drawn), the TGI [10] was over 1000 µM, the GI50 [1] was over 1000 µM and the TGI [1] was over 1000 µM. It also gave a TGI [2] of over 1000 µM, a GI50 [3] of under 0.0244 µM and a TGI [4] of over 1000 µM. The GI50 [5] was 293 µM, the TGI [5] was over 1000 µM and the GI50 [6] was 0.0826 µM. The TGI [6] was 7.12 µM, the GI50 [7] was over 1000 µM and the TGI [7] was over 1000 µM. It also gave a GI50 [8] of over 1000 µM, a TGI [8] of over 1000 µM and a TGI [9] of over 1000 µM.

Work on C/C(CCN(C)C)=N/O yielded a TGI [10] of 24 µM, a TGI [1] of 15.7 µM and a TGI [2] of 6.71 µM. The TGI [3] was 57 µM, the TGI [4] was 2.49 µM and the TGI [5] was 14.6 µM. The TGI [6] was 2.55 µM, the TGI [7] was 25.5 µM and the TGI [8] was 10.8 µM. The TGI [9] was 6.97 µM.

Cc1nc(C(=Nc2ccc(Br)cc2)Nn2cnnc2)no1 showed a TGI [10] of over 100 µM, a TGI [1] of over 100 µM and a TGI [2] of over 100 µM. It also gave a TGI [3] of over 100 µM, a TGI [5] of over 100 µM and a TGI [6] of over 100 µM. For the same compound, the TGI [7] was over 100 µM, the TGI [8] was over 100 µM and the TGI [9] was over 100 µM.

In the case of Cc1cc(NC(=O)NC(=O)c2ccccc2NC(=O)CN(C)C)ccc1Oc1ncc(Br)cn1, the TGI [10] was over 82.9 µM, the TGI [1] was 22.8 µM and the TGI [2] was over 100 µM. The TGI [3] was over 76.4 µM, the TGI [4] was over 100 µM and the TGI [5] was over 86.6 µM. The TGI [6] was 10.3 µM, the TGI [7] was over 100 µM and the TGI [8] was over 100 µM. It also gave a TGI [9] of over 57.8 µM.

Compound Cn1c2c(c3c(=O)[nH]ncc31)Cc1ccccc1-2 has a TGI [1] of 32.4 µM, a TGI [2] of 91.2 µM and a TGI [3] of over 100 µM. For the same compound, the TGI [4] was 94.2 µM, the TGI [5] was 85.8 µM and the TGI [6] was over 100 µM. It also gave a TGI [7] of 69.4 µM, a TGI [8] of 44.5 µM and a TGI [9] of over 100 µM.

CC(C)OC(=O)C(NC(=O)C(CC(=O)OCc1ccccc1)NC(=O)OCc1ccccc1)NC(=O)C1C(C)(C)CCC1(C)C (stereo not drawn) gave a TGI [10] of 47.9 µM, a TGI [1] of 12.7 µM and a TGI [2] of 10.8 µM. The TGI [3] was 18.7 µM, the TGI [4] was 45.9 µM and the TGI [5] was 4.68 µM. The TGI [6] was 24.1 µM, the TGI [7] was 24.1 µM and the TGI [8] was 44.9 µM. For the same compound, the TGI [9] was 15.9 µM.

CC(C)(NO)/C(=N\O)c1ccccc1 gave a TGI [1] of over 10 µM, a TGI [2] of over 10 µM and a TGI [3] of over 10 µM. The TGI [4] was over 10 µM, the TGI [5] was over 10 µM and the TGI [6] was over 10 µM. It also gave a TGI [7] of over 10 µM, a TGI [8] of over 10 µM and a TGI [9] of over 10 µM.
